US11382328B2, “Rapid drug discovery methods for pathogen inactivation” (priority 2019, dated 2022)
Several values for one entry are separate records, joined by “and”; a condition that tells them apart may be missing. Identical values can stand only once. Like-named read-outs stand apart in the source and are kept apart here.

System: E. coli strain W3110
Experiment: Synergy assays: Biolog chemical sensitivity panels with Group IB metal, coefficient of drug interaction (CDI) from relative growth
Assay type: cell-based
Details: for CDI (coefficient of drug interaction), copper mixed with biocide: Copper (mM) section
[1] = 1st of 3 copper concentrations (value not shown), 1st of four biocide concentrations
[2] = 1st of 3 copper concentrations (value not shown), 2nd of four biocide concentrations
[3] = 1st of 3 copper concentrations (value not shown), 3rd of four biocide concentrations
[4] = 1st of 3 copper concentrations (value not shown), 4th of four biocide concentrations
[5] = 2nd of 3 copper concentrations (value not shown), 1st of four biocide concentrations
[6] = 2nd of 3 copper concentrations (value not shown), 2nd of four biocide concentrations
[7] = 2nd of 3 copper concentrations (value not shown), 3rd of four biocide concentrations
[8] = 2nd of 3 copper concentrations (value not shown), 4th of four biocide concentrations
[9] = 3rd of 3 copper concentrations (value not shown), 1st of four biocide concentrations
[10] = 3rd of 3 copper concentrations (value not shown), 2nd of four biocide concentrations
[11] = 3rd of 3 copper concentrations (value not shown), 3rd of four biocide concentrations
[12] = 3rd of 3 copper concentrations (value not shown), 4th of four biocide concentrations
[13] = Gold section of Table 5, first of three gold concentrations (μM, value not given), biocide concentration 1 of 4
[14] = Gold section of Table 5, first of three gold concentrations (μM, value not given), biocide concentration 2 of 4
[15] = Gold section of Table 5, first of three gold concentrations (μM, value not given), biocide concentration 3 of 4
[16] = Gold section of Table 5, first of three gold concentrations (μM, value not given), biocide concentration 4 of 4
[17] = Gold section of Table 5, second of three gold concentrations (μM, value not given), biocide concentration 1 of 4
[18] = Gold section of Table 5, second of three gold concentrations (μM, value not given), biocide concentration 2 of 4
[19] = Gold section of Table 5, second of three gold concentrations (μM, value not given), biocide concentration 3 of 4
[20] = Gold section of Table 5, second of three gold concentrations (μM, value not given), biocide concentration 4 of 4
[21] = Gold section of Table 5, third of three gold concentrations (μM, value not given), biocide concentration 1 of 4
[22] = Gold section of Table 5, third of three gold concentrations (μM, value not given), biocide concentration 2 of 4
[23] = Gold section of Table 5, third of three gold concentrations (μM, value not given), biocide concentration 3 of 4
[24] = Silver 0.5 μM, 3rd of four biocide concentrations, E. coli
[25] = Silver 0.5 μM, 4th of four biocide concentrations, E. coli
[26] = Silver 1.0 μM, 3rd of four biocide concentrations, E. coli
[27] = Silver 1.0 μM, 4th of four biocide concentrations, E. coli
[28] = Silver 5.0 μM, 3rd of four biocide concentrations, E. coli
[29] = Silver 5.0 μM, 4th of four biocide concentrations, E. coli
[30] = Silver 0.5 μM, biocide concentration 1 of 4
[31] = Silver 0.5 μM, biocide concentration 2 of 4
[32] = Silver 0.5 μM, biocide concentration 3 of 4
[33] = Silver 0.5 μM, biocide concentration 4 of 4
[34] = Silver 1.0 μM, biocide concentration 2 of 4
[35] = Silver 1.0 μM, biocide concentration 3 of 4
[36] = Silver 1.0 μM, biocide concentration 4 of 4
[37] = Silver 5.0 μM, biocide concentration 1 of 4
[38] = Silver 5.0 μM, biocide concentration 2 of 4
[39] = Silver 5.0 μM, biocide concentration 3 of 4
[40] = Silver 5.0 μM, biocide concentration 4 of 4

`CCCCCCCCCCCC[N+](C)(C)CCCS(=O)(=O)O` [lauryl sulfobetaine] was tested, and the “CDI (coefficient of drug interaction), copper mixed with biocide” value (from here on “CDI … with biocide”) [1] was 0.96, the “CDI … with biocide” value [2] was 1.18 and the “CDI … with biocide” value [3] was 0.80. The “CDI … with biocide” value [4] was 0.21, the “CDI … with biocide” value [5] was 0.60 and the “CDI … with biocide” value [6] was 1.39. For the same compound, the “CDI … with biocide” value [7] was 0.72, the “CDI … with biocide” value [8] was 0.48 and the “CDI … with biocide” value [9] was 0.48. The “CDI … with biocide” value [10] was 0.80, the “CDI … with biocide” value [11] was 0.34 and the “CDI … with biocide” value [12] was 0.07. The “CDI (coefficient of drug interaction)” value [13] was 0.86, the “CDI (coefficient of drug interaction)” value [14] was 1.26 and the “CDI (coefficient of drug interaction)” value [15] was 0.86. For the same compound, the “CDI (coefficient of drug interaction)” value [16] was 0.99, the “CDI (coefficient of drug interaction)” value [17] was 0.96 and the “CDI (coefficient of drug interaction)” value [18] was 0.87. The “CDI (coefficient of drug interaction)” value [19] was 1.00, the “CDI (coefficient of drug interaction)” value [20] was 1.09 and the “CDI (coefficient of drug interaction)” value [21] was 1.13. The “CDI (coefficient of drug interaction)” value [22] was 1.04, the “CDI (coefficient of drug interaction)” value [23] was 0.96 and the “CDI (coefficient of drug interaction), silver + biocide” value (shortened to “CDI … silver + biocide”) (Silver 0.5 μM, 1st of four biocide concentrations, E. coli) was 0.83. For the same compound, the “CDI … silver + biocide” value (Silver 0.5 μM, 2nd of four biocide concentrations, E. coli) was 0.56, the “CDI … silver + biocide” value [24] was “Tox” and the “CDI … silver + biocide” value [25] was “Tox”. The “CDI … silver + biocide” value (Silver 1.0 μM, 1st of four biocide concentrations, E. coli) was 0.91, the “CDI … silver + biocide” value (Silver 1.0 μM, 2nd of four biocide concentrations, E. coli) was 0.79 and the “CDI … silver + biocide” value [26] was “Tox”. The “CDI … silver + biocide” value [27] was “Tox”, the “CDI … silver + biocide” value (Silver 5.0 μM, 1st of four biocide concentrations, E. coli) was 1.42 and the “CDI … silver + biocide” value (Silver 5.0 μM, 2nd of four biocide concentrations, E. coli) was 1.41. The “CDI … silver + biocide” value [28] was “Tox” and the “CDI … silver + biocide” value [29] was “Tox”.

With `NC(CCC(=O)NO)C(=O)O` [L-glutamic-γ-hydroxamate] the “CDI (coefficient of drug interaction)” value (Copper (mM), 1st of 3 copper concentrations (head line not shown), biocide concentration 1 of 4, E. coli) was 1.14, the “CDI (coefficient of drug interaction)” value (Copper (mM), 1st of 3 copper concentrations (head line not shown), biocide concentration 2 of 4, E. coli) was 1.16 and the “CDI (coefficient of drug interaction)” value (Copper (mM), 1st of 3 copper concentrations (head line not shown), biocide concentration 3 of 4, E. coli) was 0.97. The “CDI (coefficient of drug interaction)” value (Copper (mM), 1st of 3 copper concentrations (head line not shown), biocide concentration 4 of 4, E. coli) was 1.01, the “CDI (coefficient of drug interaction)” value (Copper (mM), 2nd of 3 copper concentrations (head line not shown), biocide concentration 1 of 4, E. coli) was 0.87 and the “CDI (coefficient of drug interaction)” value (Copper (mM), 2nd of 3 copper concentrations (head line not shown), biocide concentration 2 of 4, E. coli) was 0.90. For the same compound, the “CDI (coefficient of drug interaction)” value (Copper (mM), 2nd of 3 copper concentrations (head line not shown), biocide concentration 3 of 4, E. coli) was 0.92, the “CDI (coefficient of drug interaction)” value (Copper (mM), 2nd of 3 copper concentrations (head line not shown), biocide concentration 4 of 4, E. coli) was 0.96 and the “CDI (coefficient of drug interaction)” value (Copper (mM), 3rd of 3 copper concentrations (head line not shown), biocide concentration 1 of 4, E. coli) was 0.75. For the same compound, the “CDI (coefficient of drug interaction)” value (Copper (mM), 3rd of 3 copper concentrations (head line not shown), biocide concentration 2 of 4, E. coli) was 0.80, the “CDI (coefficient of drug interaction)” value (Copper (mM), 3rd of 3 copper concentrations (head line not shown), biocide concentration 3 of 4, E. coli) was 0.69 and the “CDI (coefficient of drug interaction)” value (Copper (mM), 3rd of 3 copper concentrations (head line not shown), biocide concentration 4 of 4, E. coli) was 0.74. For the same compound, the “CDI (coefficient of drug interaction), gold + biocide” value (“CDI … gold + biocide” below) (Gold (μM), first of 3 gold concentrations, biocide concentration 1 of 4) was 1.03, the “CDI … gold + biocide” value (Gold (μM), first of 3 gold concentrations, biocide concentration 2 of 4) was 1.03 and the “CDI … gold + biocide” value (Gold (μM), first of 3 gold concentrations, biocide concentration 3 of 4) was 1.08. For the same compound, the “CDI … gold + biocide” value (Gold (μM), first of 3 gold concentrations, biocide concentration 4 of 4) was 1.08, the “CDI … gold + biocide” value (Gold (μM), second of 3 gold concentrations, biocide concentration 1 of 4) was 1.02 and the “CDI … gold + biocide” value (Gold (μM), second of 3 gold concentrations, biocide concentration 2 of 4) was 1.01. For the same compound, the “CDI … gold + biocide” value (Gold (μM), second of 3 gold concentrations, biocide concentration 3 of 4) was 1.09, the “CDI … gold + biocide” value (Gold (μM), second of 3 gold concentrations, biocide concentration 4 of 4) was 1.04 and the “CDI … gold + biocide” value (Gold (μM), third of 3 gold concentrations, biocide concentration 1 of 4) was 1.01. For the same compound, the “CDI … gold + biocide” value (Gold (μM), third of 3 gold concentrations, biocide concentration 2 of 4) was 1.01, the “CDI … gold + biocide” value (Gold (μM), third of 3 gold concentrations, biocide concentration 3 of 4) was 1.02 and the “CDI … gold + biocide” value (Gold (μM), third of 3 gold concentrations, biocide concentration 4 of 4) was 1.01. It also gave a CDI [30] of 0.93, a CDI [31] of 0.75 and a CDI [32] of 0.61. It also gave a CDI [33] of 0.49, a CDI [34] of 0.97 and a CDI [35] of 0.93. The CDI [36] was 0.71, the CDI [37] was 1.00 and the CDI [38] was 0.85. For the same compound, the CDI [39] was 0.71 and the CDI [40] was 0.34.

In the case of `Oc1ccccc1-c1ccccc1` [2-phenylphenol], the “CDI … with biocide” value [4] is reported as “Tox”, the “CDI … with biocide” value [8] is reported as “Tox” and the “CDI … with biocide” value [12] is reported as “Tox”. For the same compound, the “CDI (coefficient of drug interaction)” value (Gold 5 μM, biocide concentration 4 of 4, E. coli) was “Tox”, the “CDI (coefficient of drug interaction)” value (Gold 25 μM, biocide concentration 4 of 4, E. coli) was “Tox” and the “CDI … silver + biocide” value [24] was “Tox”. For the same compound, the “CDI … silver + biocide” value [25] was “Tox”, the “CDI … silver + biocide” value [26] was “Tox” and the “CDI … silver + biocide” value [27] was “Tox”. For the same compound, the “CDI … silver + biocide” value [28] was “Tox”, the “CDI … silver + biocide” value [29] was “Tox” and the “CDI (coefficient of drug interaction)” value ([…], biocide concentration 4 of 4, E. coli) was “Tox”.

With `N[C@@H](CC(=O)NO)C(=O)O` [L-Aspartic-β-hydroxamate] the “CDI … gold + biocide” value was 1.03 and 1.06 and 1.05 and 1.11 and 1.19 and 1.02 and 1.01.

With `C[n+]1ccc(-c2cc[n+](C)cc2)cc1` [methyl viologen] the “CDI … with biocide” value [1] was 0.85, the “CDI … with biocide” value [2] was 0.99 and the “CDI … with biocide” value [3] was “Tox”. The “CDI … with biocide” value [4] was “Tox”, the “CDI … with biocide” value [5] was 0.63 and the “CDI … with biocide” value [6] was 0.77. The “CDI … with biocide” value [7] was “Tox”, the “CDI … with biocide” value [8] was “Tox” and the “CDI … with biocide” value [9] was 0.61. For the same compound, the “CDI … with biocide” value [10] was 0.64, the “CDI … with biocide” value [11] was “Tox” and the “CDI … with biocide” value [12] was “Tox”. The “CDI (coefficient of drug interaction)” value [13] was 0.99, the “CDI (coefficient of drug interaction)” value [14] was 1.07 and the “CDI (coefficient of drug interaction)” value [15] was 0.82. The “CDI (coefficient of drug interaction)” value [16] was 0.08, the “CDI (coefficient of drug interaction)” value [17] was 1.01 and the “CDI (coefficient of drug interaction)” value [18] was 1.01. The “CDI (coefficient of drug interaction)” value [19] was 0.66, the “CDI (coefficient of drug interaction)” value [20] was 0.78 and the “CDI (coefficient of drug interaction)” value [21] was 1.04. For the same compound, the “CDI (coefficient of drug interaction)” value [22] was 0.98, the “CDI (coefficient of drug interaction)” value [23] was 0.50 and the “CDI (coefficient of drug interaction)” value (Gold section of Table 5, third of three gold concentrations (μM, value not given), biocide concentration 4 of 4) was 0.28. The CDI [30] was 0.89, the CDI [31] was 0.73 and the CDI [32] was “Tox”. The CDI [33] was “Tox”, the CDI (Silver 1.0 μM, biocide concentration 1 of 4) was 0.48 and the CDI [34] was 0.20. For the same compound, the CDI [35] was “Tox”, the CDI [36] was “Tox” and the CDI [37] was 0.07. The CDI [38] was 0.01, the CDI [39] was “Tox” and the CDI [40] was “Tox”.
